# Patent US20240189318A1, “THERAPEUTIC REGIMENS OF AN INHIBITOR OF THE ENZYMATIC ACTIVITY OF BRG1 AND BRM” (FOGHORN THERAPEUTICS INC., priority 2021, published 2024)
# Like-named read-outs stand apart in the source and are kept apart here.
# Legend:
# 249 other ATPases = assay: Additional profiling: binding to other ATPases in cells
# CYP2B6 = biological target: T1, CYP2B6 (Homo sapiens, UniProt P20813); assay: CYP enzyme inhibition in pooled human liver microsomes, CYP2B6; conditions: for inhibition at 30 µM: human, microsomes, Enzyme activity (% inhibition), CYP2B6, probe Efavirenz
# T1 sequence (P20813 1-491): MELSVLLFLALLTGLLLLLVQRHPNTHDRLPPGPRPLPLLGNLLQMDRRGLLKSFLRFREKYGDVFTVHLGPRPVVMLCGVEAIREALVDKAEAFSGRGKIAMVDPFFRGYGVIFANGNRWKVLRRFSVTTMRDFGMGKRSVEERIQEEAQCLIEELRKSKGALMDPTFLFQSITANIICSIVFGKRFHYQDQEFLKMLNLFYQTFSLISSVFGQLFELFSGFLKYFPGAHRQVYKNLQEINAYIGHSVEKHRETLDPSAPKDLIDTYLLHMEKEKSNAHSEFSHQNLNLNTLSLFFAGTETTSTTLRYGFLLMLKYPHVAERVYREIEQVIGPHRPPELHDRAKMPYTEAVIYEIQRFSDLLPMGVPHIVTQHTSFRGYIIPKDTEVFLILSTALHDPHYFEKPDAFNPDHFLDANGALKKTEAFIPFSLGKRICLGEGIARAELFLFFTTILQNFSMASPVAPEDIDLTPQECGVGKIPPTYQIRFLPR
# CYP2b1 mRNA = assay: CYP mRNA expression in cultured rat hepatocytes, CYP2b1; format: in vitro ADME; conditions: 0.3 to 100 nM
# CYP2B6 mRNA = assay: CYP mRNA level (qRT-PCR) in cultured human hepatocytes, CYP2B6; conditions: tested concentrations up to 50 nM
# CYP2C8 = CYP2C8 (Homo sapiens, UniProt P10632); assay: Depletion by recombinant CYP enzyme, CYP2C8; format: in vitro ADME; parameters: from tissue; host or cells: pooled human liver microsomes; conditions: recombinant 2C8
# Sequence of CYP2C8 (P10632 whole entry): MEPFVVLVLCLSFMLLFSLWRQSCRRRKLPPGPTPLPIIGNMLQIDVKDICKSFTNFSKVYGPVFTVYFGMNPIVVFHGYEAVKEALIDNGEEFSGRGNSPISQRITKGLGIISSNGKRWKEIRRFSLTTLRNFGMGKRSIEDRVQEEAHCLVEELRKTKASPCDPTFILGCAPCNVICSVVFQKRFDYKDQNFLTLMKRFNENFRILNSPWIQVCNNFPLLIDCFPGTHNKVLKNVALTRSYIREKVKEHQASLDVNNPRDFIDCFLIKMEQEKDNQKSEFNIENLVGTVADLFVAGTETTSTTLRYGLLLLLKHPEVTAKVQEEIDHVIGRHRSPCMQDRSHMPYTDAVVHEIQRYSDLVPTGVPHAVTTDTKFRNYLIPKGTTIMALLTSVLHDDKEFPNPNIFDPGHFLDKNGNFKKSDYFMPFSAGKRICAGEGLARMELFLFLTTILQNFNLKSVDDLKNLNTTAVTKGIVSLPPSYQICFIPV
# [1] = system: 92-1 uveal melanoma cells; assay: 92-1 uveal melanoma xenograft, Example 16; format: in vivo
# CYP3a23 mRNA = assay: CYP mRNA expression in cultured rat hepatocytes, CYP3a23; format: in vitro ADME; conditions: 0.3 to 100 nM
# [2] = system: cultured human hepatocytes; assay: Cytotoxicity to cultured human hepatocytes (morphology, LDH release); conditions: second study, 0.3 to 50 nM, 72 hours
# CYP2C19 = CYP2C19 (Homo sapiens, UniProt P33261); assay: CYP enzyme inhibition in pooled human liver microsomes, CYP2C19; conditions: for inhibition at 30 µM: human, microsomes, Enzyme activity (% inhibition), CYP2C19, probe S-Mephenytoin
# Sequence of CYP2C19 (P33261 whole entry): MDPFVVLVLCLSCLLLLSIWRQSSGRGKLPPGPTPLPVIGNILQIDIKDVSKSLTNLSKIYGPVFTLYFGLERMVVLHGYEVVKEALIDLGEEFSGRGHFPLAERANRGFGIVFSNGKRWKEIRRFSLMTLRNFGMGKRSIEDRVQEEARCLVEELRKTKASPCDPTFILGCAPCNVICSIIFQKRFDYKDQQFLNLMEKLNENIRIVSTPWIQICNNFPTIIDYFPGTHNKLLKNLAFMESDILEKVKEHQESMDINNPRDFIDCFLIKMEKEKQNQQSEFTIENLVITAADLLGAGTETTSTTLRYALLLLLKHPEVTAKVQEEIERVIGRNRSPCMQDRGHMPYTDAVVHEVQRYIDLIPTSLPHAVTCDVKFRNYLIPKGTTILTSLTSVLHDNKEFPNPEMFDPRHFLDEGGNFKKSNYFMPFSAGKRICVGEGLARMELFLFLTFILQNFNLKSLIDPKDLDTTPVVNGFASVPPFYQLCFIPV
# CYP3A activity = assay: CYP enzyme activity in cultured human hepatocytes, CYP3A4; format: in vitro ADME
# CYP2D6 = CYP2D6 (Homo sapiens, UniProt P10635); assay: CYP enzyme inhibition in pooled human liver microsomes, CYP2D6; conditions: for inhibition at 30 µM: human, microsomes, Enzyme activity (% inhibition), CYP2D6, probe Dextromethorphan
# Sequence of CYP2D6 (P10635 whole entry): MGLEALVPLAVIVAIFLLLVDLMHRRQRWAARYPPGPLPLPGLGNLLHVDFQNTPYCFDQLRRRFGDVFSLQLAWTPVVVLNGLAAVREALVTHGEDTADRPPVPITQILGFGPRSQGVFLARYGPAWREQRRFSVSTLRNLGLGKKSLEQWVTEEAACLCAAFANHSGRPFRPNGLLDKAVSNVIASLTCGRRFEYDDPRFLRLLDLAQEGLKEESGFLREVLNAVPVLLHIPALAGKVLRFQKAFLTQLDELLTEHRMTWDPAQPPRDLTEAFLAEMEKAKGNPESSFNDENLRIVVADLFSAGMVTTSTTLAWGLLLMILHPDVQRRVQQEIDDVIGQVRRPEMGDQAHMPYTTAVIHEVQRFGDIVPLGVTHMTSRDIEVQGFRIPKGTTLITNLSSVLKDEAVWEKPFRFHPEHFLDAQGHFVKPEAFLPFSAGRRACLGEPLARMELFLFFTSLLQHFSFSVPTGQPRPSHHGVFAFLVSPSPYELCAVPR
# CYP1a2 mRNA = assay: CYP mRNA expression in cultured rat hepatocytes, CYP1a2; format: in vitro ADME; conditions: 0.3 to 100 nM
# [3] = Oral absorption in dogs, capsule; format: in vivo; conditions: administered in a capsule
# P-gp = biological target: T2, P-gp (Homo sapiens, UniProt P08183); assay: Transporter inhibition in MDCK-II cells, P-gp; format: in vitro ADME; conditions: for IC50: probe quinidine 0.1 μM
# T2 construct: expressed in transfected cells; host or cells: MDCK-II
# T2 sequence (P08183 whole entry): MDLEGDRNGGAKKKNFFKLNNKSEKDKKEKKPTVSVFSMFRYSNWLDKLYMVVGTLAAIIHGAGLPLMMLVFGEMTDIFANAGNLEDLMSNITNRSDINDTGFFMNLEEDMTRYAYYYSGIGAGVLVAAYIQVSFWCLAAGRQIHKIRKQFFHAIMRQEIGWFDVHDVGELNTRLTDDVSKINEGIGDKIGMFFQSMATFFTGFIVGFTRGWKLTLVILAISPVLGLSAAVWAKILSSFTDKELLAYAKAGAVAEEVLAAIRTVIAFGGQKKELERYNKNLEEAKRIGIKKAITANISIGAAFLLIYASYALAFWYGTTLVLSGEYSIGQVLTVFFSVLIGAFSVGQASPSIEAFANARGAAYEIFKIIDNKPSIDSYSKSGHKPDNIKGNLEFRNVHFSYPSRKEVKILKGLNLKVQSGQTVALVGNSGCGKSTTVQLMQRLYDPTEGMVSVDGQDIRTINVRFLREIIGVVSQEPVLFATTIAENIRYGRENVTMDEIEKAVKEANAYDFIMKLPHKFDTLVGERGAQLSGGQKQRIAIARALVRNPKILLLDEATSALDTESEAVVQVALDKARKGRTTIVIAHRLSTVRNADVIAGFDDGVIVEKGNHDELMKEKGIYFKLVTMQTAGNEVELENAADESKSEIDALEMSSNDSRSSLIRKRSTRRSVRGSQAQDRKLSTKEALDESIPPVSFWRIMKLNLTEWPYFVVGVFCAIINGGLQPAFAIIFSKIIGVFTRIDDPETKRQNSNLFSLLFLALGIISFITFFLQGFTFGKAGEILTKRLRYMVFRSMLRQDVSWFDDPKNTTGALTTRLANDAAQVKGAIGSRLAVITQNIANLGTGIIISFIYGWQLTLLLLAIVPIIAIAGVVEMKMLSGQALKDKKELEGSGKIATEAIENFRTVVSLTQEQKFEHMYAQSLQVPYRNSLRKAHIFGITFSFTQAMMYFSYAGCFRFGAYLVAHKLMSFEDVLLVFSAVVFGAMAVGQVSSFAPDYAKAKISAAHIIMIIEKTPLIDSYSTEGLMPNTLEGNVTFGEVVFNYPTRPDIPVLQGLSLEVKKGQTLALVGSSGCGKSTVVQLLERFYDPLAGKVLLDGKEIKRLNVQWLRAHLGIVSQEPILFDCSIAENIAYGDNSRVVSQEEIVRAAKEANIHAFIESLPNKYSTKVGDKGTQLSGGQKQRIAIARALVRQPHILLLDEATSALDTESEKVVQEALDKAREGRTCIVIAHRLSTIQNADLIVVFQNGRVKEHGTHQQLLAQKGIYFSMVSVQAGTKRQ
# BCRP = biological target: T3, BCRP (Homo sapiens, UniProt Q9UNQ0); assay: Bidirectional transport in MDCK-II cells expressing BCRP; format: in vitro ADME
# T3 construct: expressed in transfected cells; host or cells: MDCK-II
# T3 sequence (Q9UNQ0 1-655): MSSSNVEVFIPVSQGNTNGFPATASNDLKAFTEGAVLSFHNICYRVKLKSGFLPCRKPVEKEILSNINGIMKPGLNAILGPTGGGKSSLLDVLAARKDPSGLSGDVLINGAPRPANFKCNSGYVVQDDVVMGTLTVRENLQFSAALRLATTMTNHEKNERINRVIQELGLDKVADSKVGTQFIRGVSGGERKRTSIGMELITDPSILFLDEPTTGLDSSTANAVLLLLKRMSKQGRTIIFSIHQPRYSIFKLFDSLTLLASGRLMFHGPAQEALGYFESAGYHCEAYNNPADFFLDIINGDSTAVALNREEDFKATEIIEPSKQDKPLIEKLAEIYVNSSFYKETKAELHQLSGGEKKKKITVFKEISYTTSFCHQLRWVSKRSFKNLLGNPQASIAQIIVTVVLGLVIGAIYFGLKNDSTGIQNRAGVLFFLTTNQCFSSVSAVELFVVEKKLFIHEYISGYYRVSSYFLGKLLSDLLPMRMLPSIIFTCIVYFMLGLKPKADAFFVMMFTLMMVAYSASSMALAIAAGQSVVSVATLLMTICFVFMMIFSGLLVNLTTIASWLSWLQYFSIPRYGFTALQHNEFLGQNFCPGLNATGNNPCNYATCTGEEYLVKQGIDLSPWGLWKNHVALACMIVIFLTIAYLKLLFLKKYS
# [4] = PHLM, concentrations up to 30 μM
# [5] = 30 Minutes Pre-incubation with NADPH, PHLM
# [6] = 30 Minutes Pre-incubation without NADPH, PHLM
# [7] = human, read-out: Papp A→B, in transporter cells
# [8] = human, read-out: Papp B→A, in transporter cells
smiles,measurement,setting,value
"COC[C@H](NC(=O)c1ccn(S(C)(=O)=O)c1)C(=O)Nc1nc(-c2cccc(N3C[C@@H](C)O[C@@H](C)C3)n2)cs1 [compound of formula (I), N-((S)-1-((4-(6-(cis-2,6-dimethylmorpholino)pyridin-2-yl)thiazol-2-yl)amino)-3-methoxy-1-oxopropan-2-yl)-1-(methylsulfonyl)-1H-pyrrole-3-carboxamide]",binding to 249 other ATPases in cells,249 other ATPases,little binding
same,IC50,CYP2B6,> 30 µM
same,direct inhibitory activity (% inhibition) toward CYP2B6,CYP2B6; [4],< 50%
same,inhibition at 30 µM,CYP2B6; [5],-10%
same,inhibition at 30 µM,CYP2B6; [6],-6%
same,inhibition at 30 µM,"CYP2B6; No Pre-incubation, PHLM",7.6%
same,concentrations at which CYP2b1 mRNA expression was decreased ≥50%,CYP2b1 mRNA,≥ 10 nM
same,effect on mRNA expression of CYP2B6,CYP2B6 mRNA,minimal effect
same,% Remaining of Compound of Formula (I),CYP2C8; 0.1 μM,81.0%
same,% Remaining of Compound of Formula (I),CYP2C8; 1 μM,95.4%
same,tumor response at the highest dose,"[1]; […], once daily oral gavage",tumor regression
same,tolerability based on % body weight change,[1]; all treatments,well tolerated
same,tumor growth inhibition,"[1]; nude mice, 92-1 xenograft, once daily oral gavage, 3 weeks, increasing doses",tumor growth inhibition in a dose-dependent manner
same,concentrations at which CYP3a23 mRNA expression was decreased ≥50%,CYP3a23 mRNA,≥ 10 nM
same,cytotoxicity to cultured human hepatocytes,[2],no evidence of cytotoxicity
same,IC50,CYP2C19,> 30 µM
same,direct inhibitory activity (% inhibition) toward CYP2C19,CYP2C19; [4],< 50%
same,inhibition at 30 µM,CYP2C19; [5],28.1%
same,inhibition at 30 µM,CYP2C19; [6],21.4%
same,inhibition at 30 µM,"CYP2C19; No Pre-incubation, PHLM",23.1%
same,effect on CYP3A activity,CYP3A activity; 0.3 to 50 nM,minimal
same,decrease in CYP3A activity,CYP3A activity; concentrations 1 to 50 nM,≤ 32%
same,IC50,CYP2D6,> 30 µM
same,direct inhibitory activity (% inhibition) toward CYP2D6,CYP2D6; [4],< 50%
same,inhibition at 30 µM,CYP2D6; [5],9.6%
same,inhibition at 30 µM,CYP2D6; [6],11.5%
same,inhibition at 30 µM,"CYP2D6; No Pre-incubation, PHLM",13.2%
same,CYP1a2 mRNA expression decreased ≥50%,CYP1a2 mRNA,but not CYP1a2
same,oral absorption,[3],good oral absorption
same,R-value for P-gp inhibition in the gut,"P-gp; FDA guidance 2020, human dose of 300 mg",> 10
same,IC50,"P-gp; P-gp in MDCK-II cells, read-out: Estimated IC50 using nominal concentrations",18.5 µM
same,IC50,"P-gp; P-gp, corrected, read-out: IC50 corrected for non-specific binding",4.36 µM
same,BCRP substrate status,BCRP; MDCK-II cells expressing BCRP,substrate
same,Papp A→B at 1 μM,BCRP; [7],6.15 ×10⁻⁶ cm/s
same,Papp A→B at 10 μM,BCRP; [7],16.5 ×10⁻⁶ cm/s
same,Papp A→B at 50 μM,BCRP; [7],22.4 ×10⁻⁶ cm/s
same,Papp B→A at 1 μM,BCRP; [8],24.3 ×10⁻⁶ cm/s
same,Papp B→A at 10 μM,BCRP; [8],25.2 ×10⁻⁶ cm/s
same,Papp B→A at 50 μM,BCRP; [8],18.5 ×10⁻⁶ cm/s
